Assay results as given in the METLIN SMRT retention time set (Domingo-Almenara et al. 2019).

Assay: gradient 5% acetonitrile 3 min, to 50% in 2 min, to 85% in 15 min, held 3 min, 100 µL/min
Settings: column: Zorbax Extend-C18 2.1 x 50 mm; eluents: water / acetonitrile, 0.1% formic acid
Method in brief: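 Data were gathered over 3 months by HPLC coupled to a quadrupole time-of-flight mass spectrometer, operated in positive and negative ionization mode. Mixtures of ~100 pure standards ran on a Zorbax Extend-C18 column (2.1 × 50 mm, 1.8 μm) at 100 μL/min, with water and acetonitrile each containing 0.1% formic acid and dead and dwell volumes of 40 μL and 900 μL. Retention time was read from adduct peaks picked by computer and checked manually.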

O=C(COc1ccc(NC(=O)C2CC2)cn1)NC1CCN(Cc2ccccc2)CC1
RP-LC retention time: 590 s

COc1cc(OC)cc(-c2nc(-c3ccc4nnn(C(C)C)c4c3)no2)c1
RP-LC retention time: 1160 s

Cc1ccc(N2CC(NC(=O)NCc3cccs3)CC2=O)cc1C (centres undefined)
RP-LC retention time: 704 s

CCCS(=O)(=O)N1CCc2c(c(CN(C(C)=O)c3ccccc3)nn2C)C1
RP-LC retention time: 707 s

COc1ccccc1-c1noc(C2CCCN2C(=O)c2cc(F)ccc2F)n1 (centres undefined)
RP-LC retention time: 968 s

C=CCn1c(=O)c2ccccc2n(Cc2nc(-c3cccc(OC)c3)no2)c1=O
RP-LC retention time: 1010 s

CCOC(=O)N1CCN(C(=O)CCC2CCN(c3cc(NC4CC4)ncn3)CC2)CC1
RP-LC retention time: 561 s

Cn1c(=O)c(N2CCC(NC(=O)Nc3cccc(Cl)c3)CC2)nc2ccccc21
RP-LC retention time: 944 s

Cc1c(-c2nnc(C3CCC3)o2)c(S(=O)(=O)NCc2ccc(Cl)cc2)c(C)n1C
RP-LC retention time: 1010 s

O=[N+]([O-])c1ccc(-c2csc(Nc3ccc4c(c3)OCO4)n2)cc1
RP-LC retention time: 1110 s

CSc1ccccc1CN1CCC(CNS(=O)(=O)/C=C/c2ccccc2)CC1
RP-LC retention time: 607 s

O=C(CCc1ccccc1)N1CCC(n2nnc3cc(F)ccc3c2=O)CC1
RP-LC retention time: 879 s

COc1cccc(CCC(=O)N2C[C@@H]3C[C@H]2C[C@@H]3NC(=O)c2cccs2)c1
RP-LC retention time: 753 s

Cc1ccc(N2CCN(c3nccn4nc(-c5ccc(Cl)cc5)cc34)CC2)cc1
RP-LC retention time: 1400 s

CNC(=O)N1CCC(C2CCN(C(=O)CCCC(=O)O)C2)CC1 (centres undefined)
RP-LC retention time: 572 s

COc1ccccc1OCC(O)CN1CCN(CC(=O)Nc2c(C)cccc2C)CC1 (centres undefined)
RP-LC retention time: 683 s

Cc1cc(Nc2ncccc2S(N)(=O)=O)ccc1F
RP-LC retention time: 820 s

O=C(c1ccccc1Cl)N1CCC(n2cnnc2C2CC2)CC1
RP-LC retention time: 620 s

CNc1nc(Nc2ccccc2OC)nc2ccccc12
RP-LC retention time: 659 s

O=c1n(Cc2c(F)cccc2Cl)nc2ccc(S(=O)(=O)N3CCCCCC3)cn12
RP-LC retention time: 996 s

O=C(Cn1c(=O)cc(-c2nc(C3CC3)no2)c2ccccc21)Nc1ccccc1
RP-LC retention time: 937 s

O=C(NCc1cccc(Br)c1)c1csc(C(=O)N2CCCC2)n1
RP-LC retention time: 850 s

Cc1cc(C)cc(C(=O)NC(C)C(=O)Nc2nc3ccccc3[nH]2)c1 (centres undefined)
RP-LC retention time: 688 s

Cc1ncc(Cl)cc1NCc1ccc(C(=O)N[C@@H](CC2CCCC2)C(=O)NC2CC2)s1
RP-LC retention time: 837 s

CCCN1CCN(c2cc(C(=O)O)c3cc(NS(=O)(=O)c4cccc(C)c4)ccc3n2)CC1
RP-LC retention time: 607 s

O=c1oc2c(CN3CCCC3)c(O)ccc2c2c1CCC2
RP-LC retention time: 588 s

COc1ccccc1-c1cc(C(=O)N2CCN(c3ccc(=O)n(-c4ccc(F)cc4)n3)CC2)[nH]n1
RP-LC retention time: 789 s

CCCCNc1nc(NCC)nc(-n2cnc(SC)n2)n1
RP-LC retention time: 880 s

O=C(Cc1nc(-c2ccccn2)n[nH]1)Nc1ccc(F)c(F)c1
RP-LC retention time: 651 s

COc1ccc(OC)c(-c2cn3ccn(-c4ccc(F)c(Cl)c4)c(=O)c3n2)c1
RP-LC retention time: 929 s

O=C(NC1CCCC1)c1nc2ccccn2c1-c1ccc(F)cc1
RP-LC retention time: 826 s

CCCOc1ccc(-c2nc(N3CCCCC3)c3ccccc3n2)cc1
RP-LC retention time: 930 s

Cc1ccc(OCc2nc(-c3cccc(-c4ccn[nH]4)c3)no2)cc1
RP-LC retention time: 778 s

CC(C)n1cnnc1CC1CCN(C(=O)Nc2ccc3c(c2)OCCO3)CC1
RP-LC retention time: 625 s

Cn1c(=O)c2cc(C(=O)N3CCN(C(=O)c4ccco4)CC3)sc2n(C)c1=O
RP-LC retention time: 574 s

CN1c2cc(C(=O)NC3CCN(Cc4ccccc4)CC3)ccc2C(=O)N2CCCCC21 (centres undefined)
RP-LC retention time: 586 s

Cc1nn(CCCC(=O)N2CCOCC2)c(=O)c2c(-n3cccc3)n(-c3ccccc3)nc12
RP-LC retention time: 788 s

CC1CCC(NC(=O)c2cc3sccc3n2Cc2ccc(F)cc2)CC1 (centres undefined)
RP-LC retention time: 1260 s

CC1CN(C(=O)c2cc3cc([N+](=O)[O-])ccc3s2)CC(C)O1 (centres undefined)
RP-LC retention time: 780 s

Cc1noc(-c2ccnc(-n3ncc(C(=O)N4CCN(Cc5ccccc5)CC4)c3C)c2)n1
RP-LC retention time: 645 s

COCCNC(=O)c1nc(-c2ccnc(N3CCC(C)CC3)c2)no1
RP-LC retention time: 670 s

COc1ccc(-c2cn3cccnc3n2)cc1NC(=O)c1cc(OC)c(OC)c(OC)c1
RP-LC retention time: 643 s

O=S(=O)(c1cccc(C(F)(F)F)c1)N1CCc2nc(-c3ccccc3)ncc2C1
RP-LC retention time: 1140 s

CCOc1ccc(NC(=O)Cn2nc(N3CCC(C)CC3)c3ccccc3c2=O)cc1
RP-LC retention time: 1130 s

O=C(c1cn2ccnc(-c3ccccc3)c2n1)N1CCN(C(=O)c2ccco2)CC1
RP-LC retention time: 686 s

Cc1ccc(OCC(=O)N2CCC(c3noc(-c4cnccn4)n3)C2)cc1 (centres undefined)
RP-LC retention time: 754 s

O=C(C1COc2ccccc2O1)N1CCc2cc(-c3ccno3)ccc21 (centres undefined)
RP-LC retention time: 991 s

Cc1ccc(NC(=O)C2CCN(S(=O)(=O)c3cc(C(=O)N4CCCC4)n(C)c3)CC2)cc1C
RP-LC retention time: 836 s

Cc1cc(C)cc(NC(=O)c2cc(C(C)C)n3nccc3n2)c1
RP-LC retention time: 1260 s

CCc1cccc(NC(=O)C2CCc3nc(N4CCOCC4)ncc3C2)c1 (centres undefined)
RP-LC retention time: 839 s

O=C(C1CCC1)N1CCc2sc(S(=O)(=O)NCc3ccc4c(c3)OCO4)cc2C1
RP-LC retention time: 836 s

CCOc1ccc(-n2c(N3CCN(CC)CC3)nc3cc(C(=O)OC)ccc3c2=O)cc1
RP-LC retention time: 683 s

CCC(=O)N(C1CCOCC1)C1CCN(S(=O)(=O)c2ccc(F)c(C)c2)CC1
RP-LC retention time: 836 s

CCOC(=O)C1=NN(c2ccccc2)CC1C(=O)OC (centres undefined)
RP-LC retention time: 917 s

COC(=O)c1cc2c(=O)n(CCc3cccs3)ccc2nc1C
RP-LC retention time: 838 s

CC(C)Oc1ccc(CNC(=O)c2nnc(-c3ccc(S(=O)(=O)N4CCCC4)cc3)o2)cc1
RP-LC retention time: 1000 s

CCCC1c2nccn2CCCN1C(=O)c1conc1C (centres undefined)
RP-LC retention time: 568 s

Cn1nc(CNC(=O)c2ccc(Br)o2)c2ccccc21
RP-LC retention time: 795 s

COc1ccc(NS(=O)(=O)c2cc3c(s2)CCN(C(=O)C2CC2)C3)cc1OC
RP-LC retention time: 734 s

COc1ccc(S(=O)(=O)N2CCCC(C(=O)NCCC3=CCCCC3)C2)cc1C (centres undefined)
RP-LC retention time: 1070 s

COc1nc2ccccc2nc1N1CCCC(C(=O)N2CCC(C)CC2)C1 (centres undefined)
RP-LC retention time: 1110 s

COCc1ncc(C)n1CC1CCN(Cc2sccc2C)CC1
RP-LC retention time: 534 s

O=C(Cn1cnc2nc(N3CCC(C(=O)NC4CC4)CC3)sc2c1=O)Nc1ccc(F)cc1F
RP-LC retention time: 651 s

COC(=O)C(NC(=O)Nc1cccn2c(C)nnc12)c1ccccc1 (centres undefined)
RP-LC retention time: 678 s

COCCCN1C(=O)CSc2c(c3ccccc3n2C)C1C(=O)NCc1ccc(F)cc1 (centres undefined)
RP-LC retention time: 893 s

Cc1ccc(-c2noc(Cc3nnc(-c4ccccc4)o3)n2)cc1C
RP-LC retention time: 1100 s

O=C(Nc1ccc2ccccc2c1)c1cccc(F)c1
RP-LC retention time: 1060 s

COCCN1C(=O)CS(=O)C12CCN(C(=O)Nc1ccc3c(c1)OCCO3)CC2 (centres undefined)
RP-LC retention time: 608 s

O=C1N(c2cccc(F)c2)c2ncccc2S(=O)(=O)N1Cc1ccc(F)cc1
RP-LC retention time: 1040 s

NC(N)=NCCC[C@H](NC(=O)[C@@H]1CCCN1C(=O)[C@H](N)Cc1ccccc1)C(=O)CCl
RP-LC retention time: 1100 s

CCc1ccc(-c2cn3ccn(-c4cccc(F)c4)c(=O)c3n2)cc1
RP-LC retention time: 895 s

O=C(COc1ccc(F)cc1)Nc1ccc2c(c1)N(C(=O)c1ccco1)CCC2
RP-LC retention time: 712 s

COc1ccc(C(CC(=O)N2CCCCCC2)N2Cc3ccccc3C2=O)cc1OC (centres undefined)
RP-LC retention time: 785 s

COc1ccc(Cl)cc1NC(=O)CN1CCCC(COCc2ccccc2)C1 (centres undefined)
RP-LC retention time: 630 s

Cn1cc(C(=O)NC2CCCCCC2)c2nn(-c3ccccc3)c(=O)c-2c1
RP-LC retention time: 995 s

COc1ccc(C)cc1NC(=O)C1CCCN(c2ncnc3c2nc2n3CCCCC2)C1 (centres undefined)
RP-LC retention time: 864 s

O=C(NCc1ccc2c(c1)OCO2)c1c(O)c2cccnc2n(-c2ccccc2)c1=O
RP-LC retention time: 1120 s

O=C(c1ccco1)N1CCCn2cc(-c3ccccc3F)nc21
RP-LC retention time: 639 s

CCS(=O)(=O)N1CC(=O)N(c2cc(C)cc(C)c2)C(C)(C(=O)NC2CCCCCC2)C1 (centres undefined)
RP-LC retention time: 935 s

COc1cc(NC(=O)N2CCC(n3c(C(F)(F)F)nc4cccnc43)CC2)cc(OC)c1
RP-LC retention time: 895 s

O=C(CCc1ccccc1)NCCN1CCN(c2ccc(Cl)cc2)CC1
RP-LC retention time: 619 s

Cn1cc(-c2cc3n(n2)CCC(=O)N3CC(=O)Nc2cccc(F)c2)c2ccccc21
RP-LC retention time: 829 s

Cc1noc2nc(CCC(=O)NCc3ccc(Cl)cc3)nc(N3CCCC3)c12
RP-LC retention time: 819 s

O=C(Nc1ccccc1F)N1CCc2nnc(C3CC3)n2CC1
RP-LC retention time: 592 s

CCCNc1nc(-c2ccc(C3CCCCC3)cc2)cs1
RP-LC retention time: 1170 s

Cn1nc(C(=O)NCC2CCOCC2)c2ccccc21
RP-LC retention time: 697 s

O=C(Nc1ccc2c(c1)OCCO2)N1CCC(OCCOCc2ccccc2)CC1
RP-LC retention time: 853 s

CSc1cccc(NC(=O)Cn2cccc(-c3nc(-c4ccc(F)cc4)no3)c2=O)c1
RP-LC retention time: 939 s

COc1cc(OC)c(NC(=O)Nc2c(-c3ccc(F)cc3)nc3ccccn23)cc1Cl
RP-LC retention time: 708 s
